For test [1], the system named is stroke. The note with it: intravenous, up to 12 hours following stroke onset, 2589 patients (Muir et al., 2004); cited from earlier work.
In test [2] the test system is TBI. The conditions noted are these: University of Washington trial initiated in 1999, preliminary data; cited from earlier work.
Test [3] concerns brain injury. The experiment in a line: Loss of cognitive functions (ability to learn a new spatial task) following brain injury. It counts as in vivo, animals. The conditions noted are these: single agent alone. From the text:
The discovery of a synergistic effect between PEG, a biomembrane sealing agent, and magnesium is highly significant as it can lead to the development of therapeutic formulations with improved efficacy for the treatment of neuronal trauma, inflammatory and painful conditions.

Test [4] concerns pain. The note with it: Crosby et al., 2000; cited from earlier work.

Consider `O=S(=O)([O-])[O-].[Mg+2]` [magnesium sulfate], for which, in test [1], the “clinical improvement after stroke” value is reported as “no significant improvement”. Further, the “outcome of magnesium sulfate therapy in TBI patients” value in test [2] is given as “negative”.
`[Mg+2]` [magnesium]: the “effect on the loss of cognitive functions following brain injury” value in test [3] is recorded as “no effect”. The “duration of analgesic effects” value in test [4] is at most 4 h.

(Values after patent US20090263507A1, “BIOLOGICAL MARKERS AND RESPONSE TO TREATMENT FOR PAIN, INFLAMMATION, NEURONAL OR VASCULAR INJURY AND METHODS OF USE” (Warsaw Orthopedic, Inc., priority 2008, published 2009).)
